Tests used:
Type in all cases: cell-based
MCF-7 = experiment: Cell proliferation assay, MCF-7 (breast); conditions: Homo sapiens, MCF7, 72 hours in presence of compound
Description: (§1) Seventeen cancer derived cell lines are used (GTL-16, N87, H1975, A549, H69, A2780, PC3, BT474, SKBR3, MCF-7, A375, MV4;11, K562, KM12L4A, H929, OPM-2 and KMS-11) to test the effect of (R)-2-amino-7-[2-(6-methoxy-pyridin-2-yl)-phenyl]-4-methyl-7,8-dihydro-6H-pyrido[4,3-d]pyrimidin-5-one. These cell lines cover the following 9 tumor types: Gastric, Lung, Ovarian, Prostate, Breast, Melanoma, Leukemia, Colon and Multiple myeloma. After division and medium change, cells from stock culture are seeded on cell plates and cultured for about 18 hours to allow cell growth and attachment before starting the assay. Then on the first day of the assay, (R)-2-amino-7-[2-(6-methoxy-pyridin-2-yl)-phenyl]-4-methyl-7,8-dihydro-6H-pyrido[4,3-d]pyrimidin-5-one is added to the medium at various concentrations. Cells are cultured up to 72 or 96 hours and cell proliferation is determined using commercially available cell proliferation kits.
(§2) Table 1 relates to the concentration in nM of (R)-2-amino-7-[2-(6-methoxy-pyridin-2-yl)-phenyl]-4-methyl-7,8-dihydro-6H-pyrido[4,3-d]pyrimidin-5-one which inhibits cell proliferation by 50% (IC50). […]

K562 = experiment: Cell proliferation assay, K562 (leukemia); conditions: Homo sapiens, 72 hours in presence of compound
Description: as §1, §2

LXFA 526 = experiment: Clonogenic assay, LXFA 526; conditions: Homo sapiens, Lung, non-small cell, Adenocarcinoma, soft agar, read-out: IC50 (colony formation)
Description: (§3) The anticancer activity of (R)-2-amino-7-[2-(6-methoxy-pyridin-2-yl)-phenyl]-4-methyl-7,8-dihydro-6H-pyrido[4,3-d]pyrimidin-5-one is evaluated in 30 human tumor xenografts in vitro using a clonogenic assay. In this assay, human cells derived from cancer patients are evaluated for the capacity of (R)-2-amino-7-[2-(6-methoxy-pyridin-2-yl)-phenyl]-4-methyl-7,8-dihydro-6H-pyrido[4,3-d]pyrimidin-5-one to inhibit the formation of 3 dimensional colonies. […] The tumor xenografts which have never been cultured in cell culture plastic dishes are isolated from nude mice. Tumor cell suspensions are prepared and incubated in 24 well plates containing layers of soft agar. Under these conditions a special subpopulation of cells selectively grows to colonies. (R)-2-amino-7-[2-(6-methoxy-pyridin-2-yl)-phenyl]-4-methyl-7,8-dihydro-6H-pyrido[4,3-d]pyrimidin-5one is tested in 6 concentrations up to 1000 nM. The tumor test panel comprises 1 to 10 models of 12 different human tumor types, which were bladder cancer, colon, gastric, non small cell lung (adeno, squamous cell, and large cell), small cell lung, mammary, ovary, and prostate cancer, as well as leukemia, lymphoma, melanoma, and sarcoma. Antitumor effects are recorded as inhibition of colony formation in relation to untreated controls. […]

BT474 = experiment: Cell proliferation assay, BT474 (breast); conditions: Homo sapiens, BT-474, 72 hours in presence of compound
Description: as §1, §2

OPM-2 = experiment: Cell proliferation assay, OPM-2 (multiple myeloma); conditions: Homo sapiens, 72 hours in presence of compound
Description: as §1, §2

SXF 463 = experiment: Clonogenic assay, SXF 463; conditions: Homo sapiens, Sarcoma, Rhabdomyosarcoma, soft agar, read-out: IC50 (colony formation)
Description: as §3

LEXF MOLT4 = experiment: Clonogenic assay, LEXF MOLT4; conditions: Homo sapiens, MOLT-4, Leukemia, ALL, T lymphoblast, soft agar, read-out: IC50 (colony formation)
Description: as §3

LEXF CCRFCEM = experiment: Clonogenic assay, LEXF CCRFCEM; conditions: Homo sapiens, CCRF-CEM, Leukemia, ALL, T lymphoblast, soft agar, read-out: IC50 (colony formation)
Description: as §3

MAXF 401 = experiment: Clonogenic assay, MAXF 401; conditions: Homo sapiens, MAXF401, Breast, Pap. adenocarcinoma, soft agar, read-out: IC50 (colony formation)
Description: as §3

GTL-16 = experiment: Cell proliferation assay, GTL-16 (gastric); conditions: Homo sapiens, 72 hours in presence of compound
Description: as §1, §2

KMS-11 = experiment: Cell proliferation assay, KMS-11 (multiple myeloma); conditions: Homo sapiens, 72 hours in presence of compound
Description: as §1, §2

SKBR3 = experiment: Cell proliferation assay, SKBR3 (breast); conditions: Homo sapiens, SK-BR-3, 72 hours in presence of compound
Description: as §1, §2

A375m = experiment: Cell proliferation assay, A375m (melanoma); conditions: 72 hours in presence of compound
Description: as §1, §2

N87 = experiment: Cell proliferation assay, N87 (gastric); conditions: 72 hours in presence of compound
Description: as §1, §2

PC3 = experiment: Cell proliferation assay, PC3 (prostate); conditions: Homo sapiens, PC-3, 72 hours in presence of compound
Description: as §1, §2

LEXF JURKAT = experiment: Clonogenic assay, LEXF JURKAT; conditions: Homo sapiens, Leukemia, T cell leukemia, soft agar, read-out: IC50 (colony formation)
Description: as §3

BXF 1258 = experiment: Clonogenic assay, BXF 1258; conditions: Homo sapiens, Bladder, Transitional cell carcinoma, soft agar, read-out: IC50 (colony formation)
Description: as §3

LXFS 660 = experiment: Clonogenic assay, LXFS 660; conditions: Homo sapiens, Lung, small cell, Small cell lung carcinoma, soft agar, read-out: IC50 (colony formation)
Description: as §3

LEXF K562 = experiment: Clonogenic assay, LEXF K562; conditions: Homo sapiens, Chronic myelogenous leukemia, soft agar, read-out: IC50 (colony formation)
Description: as §3

PRXF 22RV1 = experiment: Clonogenic assay, PRXF 22RV1; conditions: Homo sapiens, Prostate carcinoma, soft agar, read-out: IC50 (colony formation)
Description: as §3

- GI50 (MCF-7): 8 nM
- GI50 (K562): 24 nM
- IC50 (LXFA 526): 36 nM
- GI50 (BT474): 6 nM
- GI50 (OPM-2): 13 nM
- IC50 (SXF 463): 5 nM
- IC50 (LEXF MOLT4): 21 nM
- IC50 (LEXF CCRFCEM): 27 nM
- IC50 (MAXF 401): 15 nM
- GI50 (KMS-11): 7 nM
- GI50 (SKBR3): 18 nM
- GI50 (A375m): 36 nM
- GI50 (PC3): 16 nM
- IC50 (LEXF JURKAT): 4 nM
- IC50 (BXF 1258): 316 nM
- IC50 (LXFS 660): 6 nM
- IC50 (LEXF K562): 13 nM
- IC50 (PRXF 22RV1): 23 nM
SMILES: COc1cccc(-c2ccccc2[C@H]2Cc3nc(N)nc(C)c3C(=O)N2)n1 [(R)-2-amino-7-[2-(6-methoxy-pyridin-2-yl)-phenyl]-4-methyl-7,8-dihydro-6H-pyrido[4,3-d]pyrimidin-5-one]
- GI50 (GTL-16): 18 nM
- GI50 (N87): 12 nM
